Assay results: patent US5760036A, “Aminediol protease inhibitors” (E. R. Squibb & Sons, Inc., priority 1995, dated 1998)
pIC50: −log10 of the molar value. Read-outs that look alike come from different tables or passages of the source.

Key:
[1] = test system: RF strain of HIV (CEM-SS cells); assay: Cell Culture Anti-HIV Activity (cell viability, formazan); assay type: cell-based; settings: CEM-SS cells, RF strain of HIV, multiplicity of infection 0.04, 6 days at 37° C., 450 nm, read-out: HIV (CEM Cells) IC50
How it was run: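 CEM-SS cells (5000/well) infected with HIV RF at MOI 0.04, exposed to half-log serial compound dilutions, incubated 6 days at 37° C. Viability read by tetrazolium reduction to formazan, absorbance 450 nm. IC50 is the concentration raising formazan in infected cells to 50% of uninfected, drug-free cells.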

[2] = target: T1, HIV protease (Human immunodeficiency virus type 1 group M subtype B, UniProt P04585); assay: HIV Protease Assay; assay type: biochemical; settings: for inhibition at 10 µM: pH 5.5, 10 μM inhibitor, read-out: HIV Protease % Inhibition at 10 μM
T1 construct: and purified protease
How it was run: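 Purified protease cleaved 450 μM octapeptide substrate in 50 mM sodium acetate pH 5.5 with 100 μg/ml BSA for 30 minutes at 37° C; product analyzed by reverse-phase HPLC at UV220 after H3PO4 quench. Inhibitors tested at final 10 μM with 4% DMSO.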

[3] = Human immunodeficiency virus 1, CEM-SS, 144 h
[4] = 4% DMSO, 450 μM substrate, pH 5.5, 30 minutes at 37° C., RP-HPLC

Row | SMILES | pIC50 [1, 3] | inhibition at 10 µM [2, 4] | pIC50 [1] | HIV Protease % Inhibition at 10 μM [2] | HIV Protease % Inhibition at 10 μM ([2]; 10 μM inhibitor, 4% DMSO, 450 μM substrate, pH 5.5, 30 minutes at 37° C., RP-HPLC)
1 | CC(C)[C@H](NC(=O)OCc1ccc2ccccc2n1)C(=O)N[C@@H](Cc1ccccc1)[C@H](O)CNC[C@@H](O)[C@H](Cc1ccccc1)NC(=O)OC(C)(C)C (relative stereo) [Compound 281, [1R*,2S*(2S*,3R*)]]-N-[3-[[1,1-Dimethylethoxy)carbonyl]amino]-2-hydroxy-4-phenylbutyl]amino]-2-hydroxy-1-(phenylmethyl)-proyl]-N^2-[(2-quinolinylmethoxy)carbonyl]-L-valinamide] | 6.54 | 100% |  |  | 
2 | CC(C)(C)OC(=O)N[C@@H](Cc1ccccc1)[C@H](O)CNC[C@@H](O)[C@H](Cc1ccc(OCCN2CCOCC2)cc1)NC(=O)OC(C)(C)C [Compound 175, [1S-[1R*,2S*(2S*,3R*)]]-[3-[[3-[[(1,1-Dimethylethoxy)carbonyl]amino]-2-hydroxy-4-(4-[2-(4-morpholinyl)ethoxyl-phenyl]butyl]amino]-2-hydroxy-1-(phenylmethyl)propyl]carbamic acid, 1,1-dimethylethyl ester] | 7.52 | 99% |  |  | 
3 | CC(C)(C)OC(=O)N[C@@H](Cc1ccccc1)[C@H](O)CNC[C@@H](O)[C@H](Cc1ccccc1)NC(=O)C(C)(O)C(C)(C)CO (single isomer, unassigned; isomer b) [Compound 357, [1S-[1R*,2S*(2S*,3R*)]]-[3-[[3-[(2,4-Dihydroxy-2,3,3-trimethyl-1-oxobutyl)amino]-2-hydroxy-4-phenylbutyl]amino]-2-hydroxy-1-(phenylmethyl)propyl]carbamic acid, 1,1-dimethylethyl ester, isomer B] |  |  | 6.96 | 99% | 
4 | CC(C)(C)OC(=O)N[C@@H](Cc1ccccc1)[C@H](O)CNC[C@@H](O)[C@H](Cc1ccccc1)NC(=O)OC(C)(C)C#CCCc1ccccc1 [Compound 155, [1S-(1R*,2S*)]-[Iminobis[2-hydroxy-1-(phenylmethyl)-3,1-propanediyl]biscarbamic acid, 1,1-dimethylethyl 1,1-dimethyl-5-phenyl-2-pentynyl ester] | < 6.70 | 95% |  |  | 
5 | CC(C)[C@H](NC(=O)[C@H](C)O)C(=O)N[C@@H](Cc1ccccc1)[C@H](O)CNC[C@@H](O)[C@H](Cc1ccccc1)NC(=O)OC(C)(C)C [Compound 225, [1S-[[1R*,2S*(2S*,3R*)],N^2-(R*)]-N-[3-[[3-[[(1,1-Dimethylethoxy)carbonyl]amino]-2-hydroxy-4-phenylbutyl]amino]-2-hydroxy-1-(phenylmethyl)propyl]-N^2-(2-hydroxy-1-oxo-propyl)-L-valinamide] | 6.30 | 99% |  |  | 
6 | CC(C)(C)OC(=O)N[C@@H](Cc1ccccc1)[C@H](O)CNC[C@@H](O)[C@H](Cc1ccc(OCCc2ccccn2)cc1)NC(=O)OC(C)(C)CO [Compound 282, [1S-[1R*,2S*(2S*,3R*)]]-[3-[[3-[[(1,1-Dimethylethoxy)carbonyl]amino]-2-hydroxy-4-phenylbutyl]amino]-2-hydroxy-1-[[4-[2-(2-pyridinyl)ethoxy]phenyl]methyl]propyl]carbamic acid, 2-hydroxy-1,1-dimethylethyl ester] | 7.22 | 100% |  |  | 
7 | CC(C)(C)OC(=O)N1Cc2ccccc2CC1C(O)CNCC(O)C1Cc2ccccc2CN1C(=O)OC(C)(C)C (stereo not drawn) [Compound 11, [R-(R*,R*)]-3,3'[Iminobis(1-hydroxy-2,1-ethanediyl)]-bis[2(1H)-isoquinolinecarboxylic acid], bis(1,1-dimethylethyl) ester] | < 5.22 | 0% |  |  | 
8 | COC(=O)N[C@H](C(=O)N[C@@H](Cc1ccccc1)[C@H](O)CNC[C@@H](O)[C@H](Cc1ccccc1)NC(=O)OC(C)(C)CO)C(C)(C)C (relative stereo) [Compound 359, [1R*,2S*(2S*,3R*)]-N-[2-Hydroxy-3-[[2-hydroxy-3-[[(2-hydroxy-1,1-dimethylethoxy)-carbonyl]amino]-4-phenylbutyl]amino]-1-(phenylmethyl)propyl]-N^2-(2-methoxycarbonyl)-3-methyl-L-valinamide] | 6.25 | 99% |  |  | 
9 | CCC(C)(C)OC(=O)N[C@@H](Cc1ccccc1)[C@H](O)CNC[C@@H](O)[C@H](Cc1ccccc1)NC(=O)OC(C)(C)CC [Compound 138, [R-(R*,S*)]-[Iminobis[2-hydroxy-1-(phenylmethyl)-3,1-propandiyl]]biscarbamic acid, bis(1,1-dimethylpropyl)ester] | < 6.10 | 98% |  |  | 
10 | CC(C)[C@H](NC(=O)CC(O)CO)C(=O)N[C@@H](Cc1ccccc1)[C@H](O)CNC[C@@H](O)[C@H](Cc1ccccc1)NC(=O)OC(C)(C)C (relative stereo) [Compound 254, [1R*,2S*(2S*,3R*)]-N-[3-[[3-[[(1,1-Dimethylethoxy)carbonyl]amino]-2-hydroxy-4-phenylbutyl]amino]-2-hydroxy-1-(phenylmethyl)propyl]-N^2-(3,4-dihydroxy-1-oxobutyl)-L-valinamide] | 4.77 | 98% |  |  | 
11 | CC(C)(C)OC(=O)N[C@@H](Cc1ccccc1)[C@H](O)CNC[C@@H](O)[C@H](Cc1ccccc1)NC(=O)COc1ccccc1 (relative stereo) [Compound 72, 1S-[1R*,2S*(2S*,3R*)]]-[2-Hydroxy-3-[[2-hydroxy-3-[(phenoxyacetyl)amino]-4-phenylbutyl]amino]-1-(phenylmethyl)propyl]carbamic acid, 1,1-dimethylethylester] | < 5.49 | 51% |  |  | 
12 | CC(C)(C)OC(=O)N[C@@H](Cc1ccccc1)[C@H](O)CNC[C@@H](O)[C@H](Cc1ccccc1)NC(=O)C(C)(O)C(F)(F)F (single isomer, unassigned; isomer a) [Compound 293, [1S-[1R*,2S*(2S*,3R*)]]-[2-Hydroxy-3-[2-hydroxy-1-oxo-2-(trifluoromethyl)-propyl]amino]-4-phenylbutyl]amino]-1-(phenylmethyl)propyl]carbamic acid, 1,1-dimethylethylester (isomer A)] | 7.52 | 99% |  |  | 
13 | CC(C)(C)OC(=O)N[C@@H](Cc1ccccc1)[C@H](O)CNC[C@@H](O)[C@H](Cc1ccccc1)NC(=O)C(OCCCc1nc2ccccc2[nH]1)C(C)(C)C (stereo partly drawn) [Compound 238, [1S-[1R*,2S*(2S*,3R*)]]-[3-[[3-[[2-[3-(2-Benzimidazolyl)propoxy]-3,3-dimethyl-1-oxobutyl]amino]-2-hydroxy-4-phenylbutyl]amino]-2-hydroxy-1-(phenylmethyl)propyl]carbamic acid, 1,1-dimethylethyl ester] | 5.64 | 64% |  |  | 
14 | CC(O)COc1ccc(C[C@H](NC(=O)OC(C)(C)C)[C@H](O)CNC[C@@H](O)[C@H](Cc2ccccc2)NC(=O)OC(C)(C)C)cc1 (stereo partly drawn) [Compound 306, [1S-[1R*, 2S* (2S*, 3R*)]-[3-[[(1,1-Dimethylethoxy)carbonyl]amino]-2-hydroxy-4-[4-(2-hydroxypropoxy)phenyl]butyl]amino]-2-hydroxy-1-(phenylmethyl)propyl]carbamic acid, 1.1-dimethylethyl ester] | 7.22 | 100% |  |  | 
15 | CC(C)[C@H](NC(=O)OCc1ccccc1)C(=O)N[C@@H](Cc1ccccc1)[C@H](O)CNC[C@H](O)[C@H](Cc1ccccc1)NC(=O)OC(C)(C)C [Compound 125, [S-[1R*,2S*(2R*,3R*)]-N-[3-[[3-[[(1,1-Dimethylethoxy)carbonyl]amino]-2-hydroxy-4-phenylbutyl]amino]-2-hydroxy-1-(phenylmethyl)propyl]-N^2 [(phenylmethoxy)carbonyl]-L-valinamide] | < 5.82 | 71% |  |  | 
16 | CC(C)(C)OC(=O)N[C@@H](Cc1ccccc1)[C@H](O)CNC[C@@H](O)[C@H](Cc1ccccc1)NC(=O)C(CCO)C(C)(C)C (single isomer, unassigned; isomer a) [Compound 312, [1S-[1R*, 2S* (2S*, 3R*)]]-[3-[[3-[[2-(1,1-Dimethylethyl)-4-hydroxy-1-oxobutyl]amino]-2-hydroxy-4-phenylbutyl]amino]-2-hydroxy-1-(phenylmethyl)propyl]carbamic acid, 1,1-dimethylethyl ester, isomer A] | 5.46 |  |  |  | 95%
17 | COC(=O)N[C@H](C(=O)N[C@@H](Cc1ccccc1)[C@H](O)CNC[C@@H](O)[C@H](Cc1ccc(OCCc2ccccn2)cc1)NC(=O)OC(C)(C)C)C(C)(C)C (relative stereo) [Compound 327, [1R*,2S*(2S*,3R*)-N-[3-[[3-[[(1,1-Dimethylethoxy)carbonyl]amino]-2-hydroxy-4-[4-[2-(2-pyridinyl)ethoxyl]phenyl]butyl]amino]-2-hydroxy-1-(phenylmethyl)propyl]-N^2-(methoxycarbonyl)-3-methyl-L-valinamide] | 7.30 | 99% |  |  | 
18 | C[C@H](NC(=O)OCc1nc2ccccc2[nH]1)C(=O)N[C@@H](Cc1ccccc1)[C@H](O)CNC[C@@H](O)[C@H](Cc1ccccc1)NC(=O)OC(C)(C)C (relative stereo) [Compound 220, [1R*,2S*(2S*,3R*)]-N^2-[[(2-Benzimidazolyl)methoxy]carbonyl]-N-[3-[[3-[[(1,1-dimethylethoxy)carbonyl]amino]-2-hydroxy-4-phenylbutyl]amino]-2-hydroxy-1-(phenylmethyl)propyl]-L-alaninamide] | 6.11 | 100% |  |  | 
